The nature of data set [1]: in vitro transdermal flux of fenoldopam through human epidermis. The class given is in vitro ADME. From the text: The resulting mix was then calendered to a 5 mil thickness between 2 release liners. The drug reservoir was then heat laminated to a Medpar® backing on one surface and a 3M acrylate adhesive on the other. Circular systems were cut with a stainless steel punch.
The release liner of the matrix system was then removed and each system had its exposed edges masked. The systems were then mounted on a Teflon® holder of a release rate rod using nylon mesh and nickel wire. A known volume of receptor solution (30 ml 0.01 M phosphate buffer solution at pH 2.5) was then placed in a test tube and equilibrated at 35° C. The test tube was placed in a water bath and maintained at 35° C. The Teflon rod with attached system was then reciprocated within the test tube by attaching the rod to a motor which caused constant vertical mixing.
At given time intervals, the entire receptor solution was removed from the test tubes and replaced with an equal volume of fresh receptor solutions previously equilibrated at 35° C. […] From the drug concentration and the volume of the receptor solutions, the area of the system and the time interval, the release rate of the drug from the system was calculated as follows: (drug concentration X volume of receptor)/(area x time) =release rate (μg/cm^2·hr).
Transdermal systems set forth in Table 1 were prepared according to Example 1 and used to measure permeation through human cadaver skin. […] The edges of epidermis were then folded around the system so that none of the system edge was exposed to the receptor solution. […] The receptor compartment was filled with a known volume of 0.01 M KH2PO4/K2HPO4 which was adjusted to pH 2.5 with 10% H3PO4 buffer solution previously equilibrated at 35° C.
Transdermal systems set forth in Table 2 were prepared according to the procedure set forth in Example 1 and used to measure permeation through human cadaver skin. […] The edges of epidermis were then folded around the system so that none of the system edge was exposed to the receptor solution. […] The receptor compartment was filled with a known volume of 0.01 M KH2PO4/K2HPO4 which was adjusted to pH 2.5 with 10% H3PO4 buffer solution previously equilibrated at 35° C.

For data set [2] the following is noted: mild to moderate hypertensive patients; cited from earlier work.
For data set [3] the following is noted: oral administration; cited from earlier work.
For data set [4] the following is noted: in vivo; cited from earlier work.

Molecules are shown by their SMILES. Counter-ions that a name gives are not always drawn.

For the compound `Oc1ccc(C2CNCCc3c2cc(O)c(O)c3Cl)cc1` (stereo not shown) [fenoldopam base], the “lag period on transdermal administration” value in data set [1] was “long lag period”. For the same compound, in data set [1] (in general, compared to salts such as fenoldopam mesylate), the “permeability through the skin, formulations of base compared to formulations of salts” value is “more permeable through the skin”.
Turning to `Oc1ccc(C2CNCCc3c2cc(O)c(O)c3Cl)cc1` (stereo not shown) [fenoldopam mesylate], in data set [1], the “lag period on transdermal administration” value is reported as “did not exhibit the long lag period”. For the same compound, the “transdermal flux compared to formulations of the base” value in data set [1] (myristyl sarcosine as permeation enhancer) was “higher transdermal fluxes”.
`Oc1ccc(C2CNCCc3c2cc(O)c(O)c3Cl)cc1` (stereo not shown) [fenoldopam, 6-Chloro-2,3,4,5-tetrahydro-1-(4-hydroxyphenol)-1H-3-benzapine-7,8 diol]: in data set [2], the elimination half-life result is on record as “about 5 minutes”. In addition, the clinical benefit entry in data set [3] is listed as “does not provide any clinical benefit”. Moreover, the “effect on systolic and diastolic blood pressure” value in data set [4] was “dose-dependent reduction in systolic and diastolic blood pressure”.
